Patent publication US10143666B2, “Small molecule inhibitors targeting CAG-repeat RNA toxicity in polyglutamine diseases” (The Chinese University of Hong Kong, priority 2015, dated 2018)
Where “and” joins values, the source holds several entries; their conditions need not be identical. Identical values can stand only once.

Columns and labels:
[1] = tested on: CGG90 fly; experiment: Neurodegeneration in CGG90 fly (Fragile X syndrome model); assay type: in vivo, Drosophila
Method: (§1) Other disease fly models, including α-synuclein (Parkinson's disease)^13, CTG480 (Myotonic dystrophy 1)^14 and CGG90 (Fragile X syndrome)^15 were employed to address the specificity of DB213 on trinucleotide repeat expansion RNA toxicity.
(§2) Flies were raised at 21.5° C. on cornmeal medium supplemented with dry yeast. Pseudopupil assay was performed on 12 day-old adult flies as mentioned previously^18. Images were captured by SPOT Insight CCD camera controlled by the SPOT Advanced software (Diagnostic instruments Inc.). External eye assay was performed on 12 day-old adult flies by Olympus SZX-12 stereomicroscope. Eye images were captured using a SPOT Insight CCD camera (Diagnostic instruments Inc.).

[2] = tested on: DsRedCAG100 fly; experiment: Pseudopupil assay in DsRedCAG100 fly (expanded CAG-repeat RNA toxicity); assay type: in vivo, Drosophila; settings: 12 day-old adult flies
Excerpt: (§3) The synthesis of DB213 was described in Marcheschi et al. (Scheme 1)^12, see FIG. 1. By using a MJD (one kind of polyQ diseases) Drosophila disease model, the inventors established an effective screening platform to test a series of synthesized small molecules for their activity to suppress polyQ-induced neurodegeneration. […] To test whether the compounds acted on CAG-repeat RNA level, another Drosophila model, DsRedCAG100^6, was employed. […] Therefore, DB213 was confirmed to modulate expanded CAG-repeat RNA-mediated toxicity in vivo.
as §2

[3] = tested on: DsRedCAG0 control fly; design: species or system Drosophila; settings: in vivo
Excerpt: as §3, §2

[4] = tested on: CTG480 fly; experiment: Neurodegeneration in CTG480 fly (Myotonic dystrophy 1 model); assay type: in vivo, Drosophila
Method: as §1, §2

[5] = tested on: pre-45s rRNA in EGFPCAG78 RNA expressing SK-N-MC cells; experiment: pre-45s rRNA real-time PCR, EGFPCAG78 RNA expressing SK-N-MC cells; assay type: cell-based, human
Method: (§4) Nucleolar stress and a chain of downstream events were triggered and ultimately led to apoptosis^7.
(§5) RNA was extracted from cells by Trizol reagent (Life Technologies), and 1 μg of purified RNA was then used for reverse-transcription using the ImPromII™ Reverse Transcription System (Promega). Random hexamer (Roche) was used as primers in reverse transcription. Taqman gene expression assays were performed on an ABI 7500 Real-time PCR system and data were analyzed as previously described^7. The following probes were used: pre-45s rRNA (Assay ID: AILJIZM) and actin (Assay ID: Hs99999903_m1).

[6] = tested on: R6/2 Huntington's mice; experiment: Neurological index scoring in R6/2 mice; assay type: in vivo
Method: The body weights were measured daily.
The following 30 behaviors were evaluated: Head Tremor, Head Twitch, Head Bobbing, Head Searching, Body Tremor, Body Twitch, Tail Tremor, Tail Twitch, Straub Tail, Piloerection, Shallow Respiration, Flattened Body Posture, Swollen Face, Ptosis, Irritability, Seizure, Urine Staining, Lacrimation, Salivation, Limb Splay, Catalepsy, Abnormal Gait, Tip Toe Walking, Slow Careful Movements, Excessive Grooming, Circling, Sniffing, and Chewing. In addition to the above occurrences the chronic observational phase included excessive locomotor activity, loss of startle response, loss of righting reflex, dehydration and tail pinch. The assessment was performed as follows: A score of 0 was assigned for normal features (such as locomotor activity) or for the absence of abnormal features (such as absence of piloerection); a score of 1 was given when mild abnormalities were observed; and a score of 2-3 was given when severe abnormalities were observed. All of these features were scored from simple observation of the mice in their cage, except for the startle, tail pinch and righting reflexes which were direct manipulations. To test the startle reflex, a small hand clicker was used to generate a loud popping noise and the following behaviors were identified during this process: jumping, freezing, and rapid eye blinks. For the righting reflex, each mouse was then removed from its home cage and placed on its back allowing the mouse to correct itself. Tail pinch was tested by gently squeezing the end of the tail with forceps.

[7] = Body temperature (rectum) in R6/2 mice; settings: for Body temperature vs vehicle: day 7, p<0.05
Method: Body temperature was measured from rectum on day 1 (baseline), and on days 3, 5 and 7.
Body temperature was measured from rectum on day 1 (baseline) and on days 3, 5 and 7.

[8] = tested on: pre-45s rRNA in EGFPCAG27 RNA expressing cell; experiment: pre-45s rRNA real-time PCR, EGFPCAG27 RNA expressing cells; assay type: cell-based, human
Method: as §4, §5

[9] = tested on: trMJDCAA/G78 cells; experiment: LDH cytotoxicity assay, trMJDCAA/G78 cell model; assay type: cell-based, human; settings: only trMJDQ78 protein toxicity
Method: (§6) It was next investigated whether DB213 could mitigate expanded CAG-repeat RNA-mediated toxicity in SK-N-MC human neuronal cell. […] Taken together, DB213 could suppress the expanded CAG RNA-mediated but not polyQ protein-mediate toxicity in human neuronal cell.
(§7) SK-N-MC human neuronal cells were seeded on a 24-well plate and lactate dehydrogenase enzyme activity in the cell culture medium was measured 72 hours post-transfection and drugs treatment using the Cytotox 96 non-radioactive cytotoxicity assay (Promega).

[10] = tested on: trMJDCAG78 cells; experiment: LDH cytotoxicity assay, trMJDCAG78 cell model; assay type: cell-based, human; settings: both RNA and polyQ protein toxicities
Method: as §6, §7

CN(C)CCCNC(=N)c1ccc(C(=N)NCCCN(C)C)cc1.Cl.Cl.Cl.Cl [DB213]
Suppression of neurodegeneration [1]: did not suppress the neurodegeneration
Suppression of DsRedCAG100 RNA-mediated toxicity (neurodegeneration) [2]: suppressed the DsRedCAG100 RNA-mediated toxicity in a dose-dependent manner
Dominant toxic effect in control fly [3]: did not show any dominant toxic effect
Suppression of neurodegeneration [4]: did not suppress the neurodegeneration
pre-45s rRNA transcription level [5]: could restore the pre-45s rRNA transcription level
Mean neurological index score of all parameters vs vehicle ([6]; i.n. 300 mg/kg, day 3, p<0.05): significantly higher mean score
Neurological index score, differences between treatment groups ([6]; i.v. dosing): no differences in neurological index score
Neurological index score ([6]; intranasal dosing): increased neurological index score
Body temperature vs vehicle ([7]; i.n. 100 mg/kg): increased
Body temperature vs vehicle ([7]; i.n. 300 mg/kg): increased
Body temperature (group Mean) ([7]; i.n. daily 50 mg/kg, Day 1 (baseline)): 36.9
Body temperature (individual mouse) ([7]; i.n. daily 50 mg/kg, Day 1 (baseline), listed as Compound-5, 50 mg/kg): 37 and 35.9 and 36.4
Body temperature (group Mean) ([7]; i.n. daily 50 mg/kg, Day 3): 36.9
Body temperature (individual mouse) ([7]; i.n. daily 50 mg/kg, Day 3, listed as Compound-5, 50 mg/kg): 36.9 and 35.8 and 37
Body temperature (individual mouse) ([7]; i.n. daily 50 mg/kg, Day 5, listed as Compound-5, 50 mg/kg): 37.9
Body temperature (individual mouse) ([7]; i.n. daily 50 mg/kg, Day 7, listed as Compound-5, 50 mg/kg): 37 and 38.1
Body temperature (group Mean) ([7]; i.n. daily 100 mg/kg, Day 1 (baseline)): 37.0
Body temperature (individual mouse) ([7]; i.n. daily 100 mg/kg, Day 3, listed as Compound-5, 100 mg/kg): 37.7 and 37 and 36.9
Body temperature (individual mouse) ([7]; i.n. daily 100 mg/kg, Day 5, listed as Compound-5, 100 mg/kg): 37.7 (2×) and 36.6 and 37.9 and 36.9
Body temperature (individual mouse) ([7]; i.n. daily 100 mg/kg, Day 7, listed as Compound-5, 100 mg/kg): 38.1 and 37.7 and 36.9
Body temperature (individual mouse) ([7]; i.n. daily 200 mg/kg, Day 1 (baseline), listed as Compound-5, 200 mg/kg): 36.9 (2×) and 37.7
Body temperature (individual mouse) ([7]; i.n. daily 200 mg/kg, Day 3, listed as Compound-5, 200 mg/kg): 36.6
Body temperature (individual mouse) ([7]; i.n. daily 200 mg/kg, Day 5, listed as Compound-5, 200 mg/kg): 38
Body temperature (individual mouse) ([7]; i.n. daily 300 mg/kg, Day 5, listed as Compound-5, 300 mg/kg): 38
Body temperature (individual mouse) ([7]; i.n. daily 300 mg/kg, Day 7, listed as Compound-5, 300 mg/kg): 37.9
Body temperature (group Mean) ([7]; i.v. 50 mg/kg (treatment discontinued), Day 3, n 1): 37.7
Body temperature (group Mean) ([7]; i.v. 50 mg/kg (treatment discontinued), Day 5, n 1): 38.0
Body temperature (group Mean) ([7]; i.v. 50 mg/kg (treatment discontinued), Day 7, n 1): 37.0
Body temperature, differences between treatment groups ([7]; i.v. dosing, p>0.05): no significant differences
Body temperature (group Mean) ([7]; i.v. twice-a-week 12.5 mg/kg, Day 1 (baseline)): 36.7
Body temperature (individual mouse) ([7]; i.v. twice-a-week 12.5 mg/kg, Day 1 (baseline), listed as Compound-5): 35.7 and 37
Body temperature (individual mouse) ([7]; i.v. twice-a-week 12.5 mg/kg, Day 3, listed as Compound-5): 38
Body temperature (group Mean) ([7]; i.v. twice-a-week 12.5 mg/kg, Day 5): 37.0
Body temperature (individual mouse) ([7]; i.v. twice-a-week 12.5 mg/kg, Day 5, listed as Compound-5): 37
Body temperature (individual mouse) ([7]; i.v. twice-a-week 12.5 mg/kg, Day 7, listed as Compound-5): 37 and 38.6
Body temperature (group Mean) ([7]; i.v. twice-a-week 25 mg/kg, Day 1 (baseline)): 37.0
Body temperature (individual mouse) ([7]; i.v. twice-a-week 25 mg/kg, Day 1 (baseline), listed as Compound-5): 37.9 and 36.6 and 36.4 and 38.5
Body temperature (individual mouse) ([7]; i.v. twice-a-week 25 mg/kg, Day 3, listed as Compound-5): 36.9
Body temperature (individual mouse) ([7]; i.v. twice-a-week 25 mg/kg, Day 5, listed as Compound-5): 37.9
Body temperature ([7]; intranasal dosing): increased
pre-45s rRNA transcription level [8]: did not alter the pre-45s rRNA transcription level
Cell death level (LDH assay) [9]: did not alter the cell death level
Cell death (LDH assay) [10]: only partially inhibited the abnormal cell death
